Tested on: 3T3 cells
Test: Biocompatibility evaluation (live/dead, CCK-8, extract medium)
Format: cell-based
Experimental: The tests in this example were conducted under the following conditions/standards. • 5. Mechanical property test: The mechanical properties of bionic excipients were based on the ASTM F2458-05 standard. GelMA, PGLADMA and double-layer GelMA/PGLADMA samples with a size of 20×5 mm were prepared and stretched at a rate of 1 mm/min using a two-arm mechanical tensile instrument at room temperature, and the mechanical properties were calculated, where tensile elastic modulus=stress/strain. For example, reference can be made to the test method in Theocharidis G, Yuk H, Roh H, et al. A strain-programmed patch for the healing of diabetic wounds [J]. Nature biomedical engineering, 2022, 6 (10): 1118-1133. • 6. Hemostatic property: For the hemostatic properties of bionic excipients, for example, reference can be made to Guo Y, Wang Y, Zhao X, et al. Snake extract-laden hemostatic bioadhesive gel cross-linked by visible light [J]. Science Advances, 2021, 7 (29): cabf9635. • 7. […] After 1, 2, and 3 days of incubation, cell viability and cell proliferation were evaluated using a live/dead cell detection kit (Thermo Fisher, Hong Kong) and a CCK-8 kit (Sigma-Aldrich, Hong Kong), respectively. […]

## Oc1cc(Cl)ccc1Oc1ccc(Cl)cc1Cl [TCS, triclosan]
TCS concentration below 5%
  toxicity to cells: no toxicity
TCS concentration of around 10%
  toxicity to cells: only slightly toxic

Source: patent US20250281665A1, “BIONIC DRESSING-FORMING COMPOSITION, BIONIC DRESSING, AND METHOD OF FORMING THE BIONIC DRESSING” (THE HONG KONG POLYTECHNIC UNIVERSITY, priority 2024, published 2025)
